Turning to `COC1OC(CO)C(O)C(NC(=O)N(C)N=O)C1O` (configuration not stated), the logP (usually a log measure of how a compound divides between an organic and an aqueous phase) is -0.82.

As for `CC1=Nc2ccc(I)cc2S(=O)(=O)N1`, the logP was 1.61.

Compound `CSc1ccccc1NC(C)=O` gave a logP of 1.53.

`CC1(C)N=C(N)N=C(N)N1c1ccc(OCC(=O)N2CCOCC2)cc1` had a logP of -1.18.

For `CSc1ccc(C=NN=C(N)NO)cc1`, the log partition coefficient (logP) was 0.32.

Turning to `CNC(=S)NCC(F)(F)C(F)(F)C(F)(F)F`, the lipophilicity (logP) was found to be 1.99.

The compound `CCCCCCCCCCCCCCCC(=O)OCC1OC(n2ccc(N)nc2=O)C(O)C1O` (configuration not stated) yielded a logP of 5.03.

`N#CCCN(CCC#N)/N=N/c1nc[nH]c1C(N)=O` returned a logP of -0.76.

With `Cn1c(C=O)cnc1[N+](=O)[O-]`, the logP is -0.1.

Compound `O=S([O-])c1ccccc1.[Na+]` gave a logP of -3.54.

In turn, `NN=C(c1ccccc1)c1ccccc1` yielded a logP of 2.79.

`O=c1cn[nH]c(=O)[nH]1` returned a logP of -0.59.

In the case of `Cc1cccc(C)c1NC(=O)c1ccc(CN2CCCCC2)cc1`, the logP stood at 3.86.

Turning to `CCC1OC(=O)C(C)C(OC2CC(C)(OC)C(O)C(C)O2)C(C)C(OC2OC(C)C(O)C(N(C)C)C2O)C(C)(O)CC(C)C(=O)C(C)C(O)C1(C)O` (configuration not stated), the logP is 1.44.

`CCC1OC(=O)C(C)C(OC2CC(C)(OC)C(O)C(C)O2)C(C)C(OC2OC(C)CC(N(C)C)C2O)C(C)(O)CC(C)C(=O)C(C)C(OC(C)=O)C1C` (configuration not stated) displayed a logP of 3.32.

Turning to `O=C(CN(C(=O)C(Cl)Cl)c1ccccc1)Nc1ccccc1`, the logP is 2.96.

On to `O=C(CCc1ccccc1)Nc1ccc(Cl)c(Cl)c1`, for which the logP turned out to be 4.85.

Consider `NCC(=O)NCC(=O)NCC(=O)O`, for which the logP is -2.68.

`Cc1oc2cc(OCC#N)ccc2c(=O)c1C` yielded a logP of 1.96.

With `CC(=O)NNC(=O)c1ccccc1N(C)C`, the logP was 1.49.

`CNC(=O)Oc1cccc(Cl)c1Cl` gave a logP of 2.48.

`CC1(C)N=C(N)N=C(N)N1c1cccc([N+](=O)[O-])c1` gave a logP of 0.06.

For the compound `CCN(CC)Cc1ccc(C(=O)Nc2ccccc2)cc1`, the logP worked out at 3.49.

In turn, `O=C1CC(C(=O)O)Oc2ccccc21` (configuration not stated) returned a logP of 1.26.

The compound `CSc1ccc(NC(C)=O)cc1` gave a logP of 2.03.

As to `O=C(O)c1ccccc1-c1ccccc1C(=O)O`, the logP was 2.07.

The compound `NNc1ccc(Br)cc1` gave a logP of 1.39.

Take `FC(F)(F)CN(CC(F)(F)F)c1ccc(Br)cc1`: the logP worked out at 4.7.

The compound `CCC(=O)OCCOc1ccc(C=NO)cc1OC` returned a logP of 1.52.

Turning to `COc1ccc(-c2nc3ccncc3[nH]2)c(OC)c1`, the logP was determined as 2.56.

In turn, `CCOCCOC(=O)C(C#N)=C(CC)NCc1ccc([N+](=O)[O-])cc1` showed a logP of 2.64. This logP and that of the compound before are within 0.2 log units of each other.

With `CCOC(=O)CC(=O)C=Cc1ccccc1C`, the logP was determined as 2.66.
